Legend:
[1] = system: AMPK phosphorylation through AdipoR1 in ORS cells; assay: Western blot p-AMPK in AdipoR1 siRNA-transfected ORS cells; format: cell-based, human
Text: Following the confirmation of the molecular interaction between AdipoR1 and P5, we evaluated the activation of the intracellular signaling pathway by P5. We investigated whether APN treatment on ORS and DP cells could activate AMPK or ERK signaling pathways, which are previously known to be downstream effectors of AdipoR1 (Mao et al, [2006]; Deepa & Dong, [2009]; Shibata et al, [2012]). […] Next, for determination of whether both P5 and APN mediates the phosphorylation of AMPK through AdipoR1 in ORS and DP cells, the cells were transfected with AdipoR1 siRNA (Appendix Fig S1). […] Collectively, P5 activates AMPK signaling pathway through AdipoR1 in ORS and DP cells in vitro.
All transfections were performed using Lipofectamine 2000 following the manufacturer’s instructions (#11668019; Thermo Fisher). Human DP and ORS cells were cultured without antibiotics until reaching 50% confluency. AdipoR1 or scrambled siRNA (Bioneer) was used. The culture medium was changed 6 h after transfection, and the cells were incubated for another 24 h before subsequent analyses.
Human ORS and DP cells or skin tissue were lysed (RIPA lysis buffer; #20‐188; Merck Millipore). […] Antibody‐antigen complexes detected by enhanced chemiluminescent substrate (Thermo Fisher) were captured and quantified by Amersham imager 680 systems (GE Healthcare).

[2] = system: Adipor1−/− mice; assay: Mouse hair cycle modulation, hair cycle score, Adipor1−/− mice; format: in vivo; conditions: n = 5 mice/group, 35 days
Text: To test whether the effect of P5 is mediated through AdipoR1 in vivo, we used Adipor1 ^−/− mice (Yamauchi et al, [2007]; Okada‐Iwabu et al, [2013]). […] Consistently, the anagen induction effects of P5 was abolished in the Adipor1 ^−/− mice (Fig 4I and J), in contrast to in WT mouse (Appendix Fig S2). […] Taken together, topical P5 treatment can accelerate hair growth through AdipoR1 in vivo.
For the hair cycle modulation experiment, Adipoq ^−/− (stock #008195; JAX) (Ma et al, [2002]), Adipor1 ^−/− (Yamauchi et al, [2007]; Okada‐Iwabu et al, [2013]), or C57BL/6 (KOATECH) female mice was used (Müller‐Röver et al, [2001]). They were housed (up to four animals per cage; 23 ± 2°C, 8:00–20:00, 12 h/12 h light/dark cycle). Mice were fed a standard chow diet and provided food and water ad libitum. Mice were randomly allocated and shaved dorsally at 7.5 weeks of age. […] The mouse hair growth score (a value from 0 to 100 based on the skin pigmentation and hair shaft density) was monitored and documented at designated days with the experimenters being blind to the conditions, following a previous study (Chai et al, [2019]). […] On day 35, we obtained dorsal cutaneous tissue for histological analysis: anagen induction scores (calculated using an assigned arbitrary score; telogen = 1, anagen I–VI = 2–7) (Müller‐Röver et al, [2001]). […]

[3] = system: VEGF mRNA; assay: qRT-PCR growth factor gene expression in DP cells, VEGF; format: cell-based, human; conditions: for mRNA_VEGF: DP cells
Text: Next, we investigated the downstream effects of P5 on hair growth factor genes and proteins in DP cells. […] We tested whether P5 can also increase the mRNA levels and proteins of hair growth factors in DP cells: IGF‐1, VEGF, HGF, platelet‐derived growth factor alpha (PDGFA), and fibroblast growth factor (FGF) 7, which are known to induce or maintain the anagen phase of the hair cycle (Jindo et al, [1994]; Philpott et al, [1994]; Yano et al, [2001]; Jang, [2005]; Tomita et al, [2006]; Iino et al, [2007]).
Total RNA was isolated from P5‐treated DP cells using RNAiso Plus (#9109; TaKaRa). We used the total RNA (1 µg) for cDNA synthesis using a RevertAid First Strand cDNA Synthesis Kit (Thermo Fisher) according to the manufacturer's instructions. The mRNA expression levels were quantified on a 7500 Real‐time PCR System (Thermo Fisher) using TB Green Premix Ex Taq (TaKaRa Bio): human IGF‐1, VEGF, HGF, PDGFA, FGF7, and glyceraldehyde 3‐phosphate dehydrogenase (GAPDH) (Appendix Table S2). The relative expression levels of each gene were determined by the 2^‐ΔΔCT method.

Substance: GLYYF [P5, GST-fused (GST-P5) in pulldown assays]
- p-AMPK intensity after AdipoR1 siRNA transfection, ORS cells [1]: intensity was reduced
- Anagen induction effects / hair cycle scores vs vehicle [2]: abolished
- mRNA_VEGF ([3]; P5 5μM, relative to Control = 1, replicate 1): 1.194
- mRNA_VEGF ([3]; P5 5μM, relative to Control = 1, replicate 2): 1.24
- mRNA_VEGF ([3]; P5 5μM, relative to Control = 1, replicate 3): 0.9876
- mRNA_VEGF ([3]; P5 5μM, relative to Control = 1, replicate 4): 0.849
- mRNA_VEGF ([3]; P5 25μM, relative to Control = 1, replicate 1): 2.123
- mRNA_VEGF ([3]; P5 25μM, relative to Control = 1, replicate 2): 1.672
- mRNA_VEGF ([3]; P5 25μM, relative to Control = 1, replicate 3): 2.456
- mRNA_VEGF ([3]; P5 25μM, relative to Control = 1, replicate 4): 1.575
- VEGF mRNA expression ([3]; P5-treated DP cells, n = 4): significantly increased

Reference: publication PMC8495455, “Discovery of a transdermally deliverable pentapeptide for activating AdipoR1 to promote hair growth” (EMBO Molecular Medicine, 2021)
